# Measurements taken from patent US20200016152A1, “TREATMENT OF DISEASES” (Ampio Pharmaceuticals, Inc., priority 2010, published 2020).
# Columns and labels:
# [1] = test system: passage 6 human retinal endothelial cells; assay: ECIS transendothelial electrical resistance (TER), passage 6 retinal endothelial cells; format: cell-based; details: for ECIS as compared to untreated cells: monitored 50 hours
# Procedure: Assays were performed to determine the effect of MR-DKP (a diketopiperazine wherein R^1 in formula I is the side chain of methionine and R^2 is side chain of arginine) on transendothelial electrical resistance (TER) of passage 6 human retinal endothelial cells (Applied Cell Systems Corporation (exclusive distributor for Applied Cell Biology Research Institute), Kirkland, Wash.). Electrical resistance was measured using the electric cell-substrate impedance sensing (ECIS) system (ECISZθ, obtained from Applied Biophysics) with 8-well multiple electrode plates (8W10E). Each well of the plates was stabilized by adding 250 μl of 10 mM cysteine (Sigma) in sterile water to each well and incubating for 30 minutes at room temperature. The wells were then washed two times with 150 μl of sterile water to remove the cysteine. All wells were then coated with 10 μg/cm^2 collagen by diluting the stock solution (0.5 mg/ml Type IV collagenin 0.25% acetic acid (Sigma) in sterile water and adding 150 μl of the resulting solution to each well. The collagen solution was incubated on the plates at 37° C. for 120 minutes and then removed. The wells were washed two times with 400 μl sterile water to remove the collagen. Next, 400 μl of EGM-2 culture medium (Lonza) was added to each well. The plates were connected to the ECISZθ system and were electrically stabilized. The EGM-2 medium was aspirated and replaced with 400 μl of EGM-2 culture medium containing 100,000 cells per well. The plates were reconnected to the ECISZθ system and incubated for 24 hours in a 37° C. incubator with 5% CO2. The EGM-2 medium was aspirated and replaced with 400 μl of EGM-2 culture medium. The plates were reconnected to the ECISZθ system and incubated for 2 hours in a 37° C. incubator with 5% CO2. Solutions of the test compound in HBSS were prepared and placed in the incubator to equilibrate. The test compound was then added to appropriate wells at the following final concentrations: MR-DKP (50 μM and 100 ECIS (resistance) was monitored for 50 hours.
# Example 5 was repeated, except that the diketopiperazine used was YE-DKP (a diketopiperazine wherein R^1 in formula I is the side chain of glutamic acid and R^2 is the side chain of tyrosine). […] The increase was about 20% at its maximum.
# RhoA = assay: Rho activation assay (GLISA) in retinal endothelial cells; format: cell-based, human; details: for active Rho A levels induced: thrombin alone
# Procedure: This experiment was performed using a commercially-available Rho activation assay (GLISA) purchased from Cytoskeleton, Denver, Colo., following the manufacturer's protocol. Briefly, passage 8 or 12 human retinal endothelial cells (ACBRI 181, Applied Cell Biology Research Institute, Kirkland, Wash.) were cultured on fibronectin-coated (1 μg/cm^2) 6-well tissue culture plates using EGM-2 culture medium (Lonza) for 24 hours in a 37° C. incubator with 5% CO2 (30,000 cells/well in total volume of 3 ml). Then, the medium was aspirated and replaced with Ultraculture medium supplemented with 0.1% fetal bovine serum, L-glutamine, sodium pyruvate, penicillin/streptomycin and ITSS (insulin, transferrin sodium selenium) (all from Lonza) to serum starve the cells and reduce the background level of RhoA. The cells were cultured for 24 hours in a 37° C. incubator with 5% CO2. Test compounds diluted in HBSS were placed in the incubator to equilibrate before addition to the cells. Then, 150 μl of each test compound was added to the appropriate culture wells, and the plates were incubated in the incubator for an additional 15 minutes. Then, thrombin was added to appropriate wells. After 1 minute, the cells were washed one time with 1.5 ml phosphate buffered saline and were then lysed with 100 μl GLISA lysis buffer supplemented with protease inhibitors. The extracts were scraped, transferred to microcentrifuge tubes and transferred to ice to preserve the active form of RhoA. All extracts were then cleared of debris by spinning at 10,000 rpms for 2 minutes at 4° C. The supernatants were transferred to new tubes and placed back on ice. Aliquots of each extract were removed for the GLISA assay and for protein determinations. All protein concentrations were within 10%, and the extracts were used at the achieved concentrations (equates to 15 total protein per well). The GLISA assay was performed using the reagents supplied in the kit.
# [2] = test system: human retinal endothelial cells; assay: Actin stress fiber formation (rhodamine-phalloidin F-actin staining); format: cell-based
# Procedure: Passage 12 human retinal endothelial cells (ACBRI 181, Cell Systems Corporation (exclusive distributor for Applied Cell Biology Research Institute), Kirkland, Wash.) were seeded into 16-chamber glass slides coated with 5 μg/cm^2 fibronectin at 5000 cells per well in a total volume of 200 μl of EGM-2 medium (Lonza). The slides were cultured in a 37° C. incubator with 5% CO2 for 48 hours with daily medium changes. Then, the test compounds (DA-DKP, S1P and TNFα), diluted in Hanks Balanced Salt Solution (HBSS; Lonza), were added to give the following final concentrations: DA-DKP (100 μM) (Sigma), TNFα (1 ng/ml) (Sigma), and S1P (1 μM) (Sigma). The slides were incubated with the test compounds for 15 minutes or 3 hours in a 37° C. incubator with 5% CO2. After this incubation, the medium was aspirated, and the cells were fixed using 3.6% formaldehyde in phosphate buffered saline (PBS) for ten minutes at room temperature. All wells were then washed two times with 100 μl PBS. The cells were permeabilized using a 0.1% Triton X-100 in PBS for 5 minutes. All wells were then washed two times with 100 μl PBS, and 50 μl of a 1:40 dilution of rhodamine-phalloidin (Invitrogen) in PBS was added to the cells to stain for F-actin and left on the cells for 20 minutes at room temperature. All wells were then washed two times with 100 μl PBS. Then 100 μl PBS was added to each well and the cells were observed and photographed using an inverted microscope using a rhodamine (ex530/em590) filter.
# [3] = passage 12 cells, 1.0 μM + 0.1 U/ml thrombin
# [4] = passage 12 cells, 1.0 μM, no thrombin
# [5] = passage 8 cells, 10.0 μM + 0.1 U/ml thrombin
# [6] = passage 8 cells, 10.0 μM, no thrombin
# [7] = passage 12 cells, 10.0 μM + 0.1 U/ml thrombin
# [8] = passage 12 cells, 10.0 μM, no thrombin
compound,measurement,setting,value
O=C(O)CC[C@@H]1NC(=O)[C@H](Cc2ccc(O)cc2)NC1=O [YE-DKP],ECIS as compared to untreated cells,[1]; 50 μM,did not show a significant increase in ECIS
same,ECIS increase at its maximum,[1]; 100 μM,about 20%
same,persistence of ECIS increase,[1]; 100 μM,persisted for the remainder of the experiment
same,start of ECIS increase,[1]; 100 μM,about 6 hours
same,time at which ECIS increase became significant,[1]; 100 μM,about 12 hours
same,time at which resistance increased again,[1]; 100 μM,about 29 hours
same,time at which resistance returned to the levels of the control,[1]; 100 μM,around 28 hours
same,time of reaching significance again,[1]; 100 μM,about 33 hours
same,ECIS as compared to untreated cells,[1]; 100 μM,increase in ECIS
Thrombin,Mean OD (active RhoA),"RhoA; passage 8 cells, 0.1 U/ml thrombin alone",0.561
same,active Rho A levels induced,RhoA; passage 8 cells,very high
same,Mean OD (active RhoA),"RhoA; passage 12 cells, 0.1 U/ml thrombin alone",1.013
same,active Rho A levels induced,RhoA; passage 12 cells,very high
CSCC[C@@H]1NC(=O)[C@H](CCCNC(=N)N)NC1=O [MR-DKP],ECIS increase at its maximum,[1]; 50 μM,around 20%
same,"brief elevation in resistance, time window",[1]; 50 μM,2 to 5 h
same,start of ECIS increase,[1]; 50 μM,about 15 hours
same,time at which ECIS increase became significant,[1]; 50 μM,about 18 hours
same,time at which resistance increased again,[1]; 50 μM,about 30 hours
same,time at which resistance returned to the levels of the control,[1]; 50 μM,28 to 29 h
same,time of reaching significance again,[1]; 50 μM,about 33 hours
same,persistence of ECIS increase,"[1]; 50 μM, after the second increase",persisted for the remainder of the experiment
same,ECIS as compared to untreated cells,[1]; 50 μM,increase in ECIS
same,ECIS increase at its maximum,[1]; 100 μM,around 20%
same,persistence of ECIS increase,[1]; 100 μM,persisted for the remainder of the experiment
same,start of ECIS increase,[1]; 100 μM,about 15 hours
same,time at which ECIS increase became significant,[1]; 100 μM,about 18 hours
same,time of reaching significance again,[1]; 100 μM,about 33 hours
same,ECIS as compared to untreated cells,[1]; 100 μM,increase in ECIS
TNFα [reference compound],F-actin staining pattern (stress fibers),"[2]; TNFα 1 ng/ml alone, 15 minutes to 3 hours",stress fibers were seen at all times
COc1cc2ncnc(Nc3ccc(Oc4ccccc4)cc3)c2cc1OC [Src-1 Inhibitor],Mean OD (active RhoA),RhoA; [3],0.534
same,Percent Inhibition vs. Thrombin,RhoA; [3],85.85%
same,Mean OD (active RhoA),RhoA; [4],0.349
same,Percent Inhibition vs. Untreated Control,RhoA; [4],23.21%
"CCCCCCCCCCCCC/C=C/[C@@H](O)[C@@H](N)COP(=O)(O)O [S1P, sphingosine-1 phosphate, reference compound]",F-actin staining pattern,"[2]; S1P 1 μM alone, 15 minutes and 3 hours",actin cortical rings
O=c1cc(N2CCOCC2)oc2c(-c3ccccc3)cccc12 [PI3 kinase inhibitor LY 294002],Mean OD (active RhoA),RhoA; [5],0.433
same,Percent Inhibition vs. Thrombin,RhoA; [5],27.86%
same,Mean OD (active RhoA),RhoA; [6],0.056
same,Percent Inhibition vs. Untreated Control,RhoA; [6],45.32%
same,Mean OD (active RhoA),RhoA; [7],0.685
same,Percent Inhibition vs. Thrombin,RhoA; [7],58.73%
same,Mean OD (active RhoA),RhoA; [8],0.370
same,Percent Inhibition vs. Untreated Control,RhoA; [8],18.70%
C[C@@H]1C[C@H]2[C@@H]3CCC4=CC(=O)C=C[C@]4(C)[C@@]3(F)[C@@H](O)C[C@]2(C)[C@@]1(O)C(=O)CO [Dexamethasone],Mean OD (active RhoA),RhoA; [3],0.826
same,Percent Inhibition vs. Thrombin,RhoA; [3],33.48%
same,Mean OD (active RhoA),RhoA; [4],0.428
same,Percent Inhibition vs. Untreated Control,RhoA; [4],5.83%
